Counter-ions that a name gives are not always drawn. Some results are limits rather than exact numbers.

T1 sequence (P14416 whole entry): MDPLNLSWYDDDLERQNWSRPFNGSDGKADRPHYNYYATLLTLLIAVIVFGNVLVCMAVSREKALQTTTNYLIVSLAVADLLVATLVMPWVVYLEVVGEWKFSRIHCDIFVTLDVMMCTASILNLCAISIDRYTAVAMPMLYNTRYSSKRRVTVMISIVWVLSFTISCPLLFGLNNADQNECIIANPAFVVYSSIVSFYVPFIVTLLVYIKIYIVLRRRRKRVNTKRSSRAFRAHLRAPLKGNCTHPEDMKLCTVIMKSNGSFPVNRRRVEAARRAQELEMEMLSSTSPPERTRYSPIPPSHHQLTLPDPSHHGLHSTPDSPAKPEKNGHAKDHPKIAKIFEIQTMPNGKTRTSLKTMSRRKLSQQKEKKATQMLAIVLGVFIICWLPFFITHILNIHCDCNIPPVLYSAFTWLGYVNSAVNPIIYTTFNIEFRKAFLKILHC

This test has as its target T1, human D2 receptor (Homo sapiens, UniProt P14416).
T1 construct: expressed in transfected cells; cDNA from Origene clones TC308892 and SC123573
Put plainly: D2 receptor radioligand binding assay (membranes of HEK-293 cells expressing human D2 receptor). As to conditions: radioligand displacement, HEK293 membranes, 37° C. for 120 minutes; read-out: Affinity Score (IC50 values for D2 on a scale of 1 through 5). As for the experimental part:
Affinity for the dopamine D2 receptor was tested in vitro, and the following describes the construction of cell lines expressing human D2 receptor, as well as the binding assays themselves.
Establishment of Stable Cell Lines Expressing Either the Cloned Human D2S Receptor or the Cloned Human D2L Receptor.
The human D2 receptor exists in two isoforms: the short form (D2S) and the long form (D2L). The two isoforms are generated from the D2 gene by alternative splicing and the D2L isoform differs from the D2S isoform by the addition of 29 amino acids in the third intracellular loop of its protein structure.
To establish HEK-293 cell lines stably expressing either the human D2S or the human D2L, the human dopamine D2S receptor (Genebank Accession Number NM_016574) and human dopamine D2L receptor (Genebank Accession Number BC021195) were amplified by PCR from Origene cDNA clones TC308892 and SC123573 (respectively) using the following primers: 5-[…]-3 (SEQ ID NO: 1) sense and 5-[…]-3 (SEQ ID NO: 2) antisense. The resulting PCR products were respectively cloned into pENTR-D-TOPO (Invitrogen), sequenced and then transferred into the pCDNA3.2-DEST (Invitrogen) using the LR-clonasc gateway reaction (Invitrogen) and sequenced again to verify the genes sequence.
HEK293 cells were maintained in Eagles Minimum Essential Medium (MEM) supplemented with 0.292 g/L L-glutamine and 10% (v/v) fetal calf serum at 37° C. in a 5% CO2 humidified atmosphere. Cells were grown to 60-80% confluency in 10 cm dishes before transfection. Transfection of the D2S and D2L containing pcDNA3.2-DEST into HEK-293 cells were performed using Lipofectamine 2000 (Invitrogen). Transfected cells were seeded and diluted 2 days after transfection and maintained in culture medium supplemented with 500 μg/mL G418. The HEK-293 cell line expressing the huD2S (R2D2S) and the huD2L (R2D2L) were maintained in culture medium supplemented with 500 μg/mL G418.
D2 Receptor Binding Assays
HEK293 cells were in Eagles Minimum Essential Medium (MEM) supplemented with 10% FBS, 0.292 g/liter L-glutamine, 10^5 units/liter penicillin, 100 mg/liter streptomycin and […] Geneticin at 37° C. in a 5% CO2 humidified atmosphere. Cells were grown to 80-90% confluence and harvested with cell stripper (Cellgro #25-056-CI). Cells were then washed with PBS (2×). Cells were either pelleted and frozen at −80° C. or membranes were prepared immediately.
Cells from pellet were resuspended in homogenization buffer (15 mM Tris*HCl, 2 mM MgCl2*6H2O, 0.3 mM EDTA, 1 mM EGTA pH 7.4 @ 4° C.). Cells were then homogenized using a Polytron (PT 1200) homogenizer at setting 6 for 10 seconds. Crude membranes were pelleted at 39, 412 g for 15 min, at 4° C. (2×) in a Sorval RC6 plus centrifuge. Membranes were finally resuspended in resuspension buffer (50 mM Tris*HCl, 120 mM NaCl, 10 mM MgCl2*6H2O, 1 mM EDTA pH 7.4 @ 4° C.) and sonicated (Fisher Sonic Dismembrator) at setting 5 for 10 seconds.
The radioligand binding assays were conducted in microtiter plates (Costar #3961) with a final volume of 1.0 mL.
The membranes were thawed at room temperature, briefly homogenized using a sonicator, diluted in assay buffer and kept on wet ice until being added to the assay plate. Membranes were diluted to a final target tissue concentration of 10 μg protein per well. The specific binding should be greater than 80% with less than 10% total radioligand bound to minimize ligand depletion errors.
First compound of the invention (50 μL) or assay buffer (50 mM Tris*HCl, 120 mM NaCl, 5 mM MgCl2*6H2O, 1 mM EDTA, 5 mM KCl pH 7.4 @37° C. plus 0.025% BSA), buffer (700 μL) and then membrane (200 μL) were added to the deep well assay plate, which was then shaken for 10 minutes. Finally, radioligand (50 μL) was added.
The assay plates were incubated at 37° C. for 120 minutes.
The assay plate were filtered over 0.3% PEI pretreated glass fiber filtermats (GF/C) using a Packard Filtermate cell harvester. […]
(In general: In a radioligand displacement assay an active substance lowers the binding of a labelled ligand.)
As a reminder, the IC50 is the concentration needed to halve the response being measured. In the case of `O=C(O)c1ccccc1CN1CN(c2ccccc2)C2(CCN(CCCn3c(=O)[nH]c4ccccc43)CC2)C1=O` [Compound 19, 2-((4-Oxo-8-(3-(2-oxo-2,3-dihydro-1H-benzo[d]imidazol-1-yl)propyl)-1-phenyl-1,3,8-triazaspiro[4.5]decan-3-yl)methyl)benzoic acid], the IC50 was less than 10 nM.

Turning to `CC(C)(Oc1ccc(CN2CN(c3ccccc3)C3(CCN(CCCn4c(=O)[nH]c5ccccc54)CC3)C2=O)cc1)C(=O)O` [Compound 102, 2-Methyl-2-(4-((4-oxo-8-(3-(2-oxo-2,3-dihydro-1H-benzo[d]imidazol-1-yl)propyl)-1-phenyl-1,3,8-triazaspiro[4.5]decan-3-yl)methyl)phenoxy)propanoic acid], the IC50 is less than 10 nM.

Consider `O=C(O)c1ccccc1CN1CN(c2ccc(F)cc2)C2(CCN(CCCN3C(=O)C4(CC4)c4ccccc43)CC2)C1=O` [Compound 161, 2-((1-(4-Fluorophenyl)-4-oxo-8-(3-(2′-oxospiro[cyclopropane-1,3′-indoline]-1′-yl)propyl)-1,3,8-triazaspiro[4.5]decan-3-yl)methyl)benzoic acid], for which the IC50 was less than 10 nM.

In the case of `O=C(O)CCCCCN1CN(c2ccccc2)C2(CCN(CCCn3c(=O)[nH]c4ccccc43)CC2)C1=O` [Compound 22, 6-(4-Oxo-8-(3-(2-oxo-2,3-dihydro-1H-benzo[d]imidazol-1-yl)propyl)-1-phenyl-1,3,8-triazaspiro[4.5]decan-3-yl)hexanoic acid], the IC50 is less than 10 nM.

For the compound `CC1(F)C(=O)N(CCCN2CCC3(CC2)C(=O)N(Cc2ccccc2C(=O)O)CN3c2ccc(F)cc2)c2ccccc21` (stereo not drawn) [Compound 163], the IC50 is less than 10 nM.

Take `O=C(O)c1cccc(CN2CN(c3ccccc3)C3(CCN(CCCn4c(=O)sc5ccccc54)CC3)C2=O)c1` [Compound 52, 3-((4-Oxo-8-(3-(2-oxobenzo[d]thiazol-3(2H)-yl)propyl)-1-phenyl-1,3,8-triazaspiro[4.5]decan-3-yl)methyl)benzoic acid]: the IC50 is less than 10 nM.

Regarding `CC1C(=O)N(CCCN2CCC3(CC2)C(=O)N(Cc2cccc(C(=O)O)c2)CN3c2ccccc2)c2ccccc21` (stereo not drawn) [Compound 146, 3-((8-(3-(3-methyl-2-oxoindolin-1-yl)propyl)-4-oxo-1-phenyl-1,3,8-triazaspiro[4.5]decan-3-yl)methyl)benzoic acid], the IC50 was less than 10 nM.

As for `O=C(O)c1cccc(CN2CN(c3ccccc3)C3(CCN(CCCN4C(=O)COc5ccccc54)CC3)C2=O)c1` [Compound 71, 3-((4-Oxo-8-(3-(3-oxo-2H-benzo[b][1,4]oxazin-4(3H)-yl)propyl)-1-phenyl-1,3,8-triazaspiro[4.5]decan-3-yl)methyl)benzoic acid], the IC50 is less than 10 nM.

Consider `O=C(O)c1ccccc1CN1CN(c2ccccc2)C2(CCN(CCCN3C(=O)C4(CC4)c4ccccc43)CC2)C1=O` [Compound 149, 2-((4-Cho-8-(3-(2′-oxospiro[cyclopropane-1,3′-indoline]-1′-yl)propyl)-1-phenyl-1,3,8-triazaspiro[4.5]decan-3-yl)methyl)benzoic acid], for which the IC50 was less than 10 nM.

As to `COc1ccc(N2CN(Cc3cccc(C(=O)O)c3)C(=O)C23CCN(CCCn2c(=O)[nH]c4ccccc42)CC3)cc1` [Compound 56, 3-((1-(4-Methoxyphenyl)-4-oxo-8-(3-(2-oxo-2,3-dihydro-1H-benzo[d]imidazol-1-yl)propyl)-1,3,8-triazaspiro[4.5]decan-3-yl)methyl)benzoic acid], the IC50 was less than 10 nM.

With `O=C(O)c1cccc(N2CN(c3ccccc3)C3(CCN(CCCC(=O)c4ccccc4)CC3)C2=O)c1` [Compound 177, 3-(4-Cho-8-(4-oxo-4-phenylbutyl)-1-phenyl-1,3,8-triazaspiro[4.5]decan-3-yl)benzoic acid], the IC50 is less than 10 nM.

Regarding `CS(=O)(=O)Nc1cccc(CN2CN(c3ccccc3)C3(CCN(CCCN4C(=O)Cc5ccccc54)CC3)C2=O)c1` [Compound 213, N-(3-((4-Cho-8-(3-(2-oxoindolin-1-yl)propyl)-1-phenyl-1,3,8-triazaspiro[4.5]decan-3-yl)methyl)phenyl)methanesulfonamide], the concentration for half-maximal inhibition (IC50) is less than 10 nM.

Take `O=C(CCCN1CCC2(CC1)C(=O)N([C@H](C(=O)O)c1ccccc1)CN2c1ccccc1)c1ccccc1` [Compound 168, (S)-2-(4-oxo-8-(4-oxo-4-phenylbutyl)-1-phenyl-1,3,8-triazaspiro[4.5]decan-3-yl)-2-phenylacetic acid]: the IC50 was less than 10 nM.

For `O=C(CCCN1CCC2(CC1)C(=O)N(Cc1ccccc1C(=O)O)CN2c1ccccc1)c1ccccc1` [Compound 154, 2-((4-oxo-8-(4-oxo-4-phenylbutyl)-1-phenyl-1,3,8-triazaspiro[4.5]decan-3-yl)methyl)benzoic acid], the 50% inhibitory concentration (IC50) was less than 10 nM.

For the compound `COC(=O)c1cccc(N2CN(c3ccccc3)C3(CCN(CCCC(=O)c4ccccc4)CC3)C2=O)c1` [Compound 179, Methyl 3-(4-oxo-8-(4-oxo-4-phenylbutyl)-1-phenyl-1,3,8-triazaspiro[4.5]decan-3-yl)benzoate], the IC50 was less than 10 nM.

As to `CC1(C)C(=O)N(CCCN2CCC3(CC2)C(=O)N(Cc2cccc(C(=O)O)c2)CN3c2ccc(F)cc2)c2ccccc21` [Compound 123, 3-((8-(3-(3,3-Dimethyl-2-oxoindolin-1-yl)propyl)-1-(4-fluorophenyl)-4-oxo-1,3,8-triazaspiro[4.5]decan-3-yl)methyl)benzoic acid], the IC50 is less than 10 nM.

On to `O=C(CCCN1CCC2(CC1)C(=O)N(Cc1ccccc1C(=O)O)CN2C1CCCCC1)c1ccccc1` [Compound 218, 2-((1-Cyclohexyl-4-oxo-8-(4-oxo-4-phenylbutyl)-1,3,8-triazaspiro[4.5]decan-3-yl)methyl)benzoic acid, hydrochloride], for which the IC50 is less than 10 nM.

For `CS(=O)(=O)Nc1ccc(N2CN(c3ccccc3)C3(CCN(CCCC(=O)c4ccc(F)cc4)CC3)C2=O)cc1` [Compound 214, N-(4-(8-(4-(4-Fluorophenyl)-4-oxobutyl)-4-oxo-1-phenyl-1,3,8-triazaspiro[4.5]decan-3-yl)phenyl)methanesulfonamide], the IC50 was less than 10 nM.

On to `O=C(O)CCCC(c1ccccc1)N1CN(c2ccccc2)C2(CCN(CCCn3c(=O)[nH]c4ccccc43)CC2)C1=O` (stereo not drawn) [Compound 69, 5-(4-Oxo-8-(3-(2-oxo-2,3-dihydro-1H-benzo[d]imidazol-1-yl)propyl)-1-phenyl-1,3,8-triazaspiro[4.5]decan-3-yl)-5-phenylpentanoic acid], for which the IC50 was less than 10 nM.

As for `O=C(O)c1cccc(CN2CN(c3ccccc3)C3(CCN(CCCN4C(=O)C5(CC5)c5ccccc54)CC3)C2=O)c1` [Compound 130, 3-((4-oxo-8-(3-(2′-oxospiro[cyclopropane-1,3′-indoline]-1′-yl)propyl)-1-phenyl-1,3,8-triazaspiro[4.5]decan-3-yl)methyl)benzoic acid, hydrochloride salt], the IC50 was less than 10 nM.

Turning to `O=C(O)c1ccccc1CN1CN(c2ccc(F)cc2)C2(CCN(CCCN3C(=O)Cc4ccccc43)CC2)C1=O` [Compound 152, 2-((1-(4-Fluorophenyl)-4-oxo-8-(3-(2-oxoindolin-1-yl)propyl)-1,3,8-triazaspiro[4.5]decan-3-yl)methyl)benzoic acid], the IC50 is less than 10 nM.

The record behind these values is US9156840B2, “D2 antagonists, methods of synthesis and methods of use” (ALTOS THERAPEUTICS, LLC, priority 2010, dated 2015).
